Legend:
[1] = system: aptamer-Seq.10-Cy5 (csa-DEHP aptamer) (DNA, aptamer) TTCCGGGCATACGTATCGAATGTTGTGAGCCGTGGGCTGC; assay: 1H NMR; details: complex formed in deionized water at 4 °C overnight, dialyzed; amino signals shift 1.9 to 2.3 ppm
[2] = system: DEHP aptamer-Seq.10 (FAM-labeled) (DNA, aptamer) TTCCGGGCATACGTATCGAATGTTGTGAGCCGTGGGCTGC; assay: graphene oxide fluorescence assay; details: 37 °C, 1.5 h incubation; graphene oxide:ssDNA mass ratio 100:1; nonlinear regression

Q: CCCCC(CC)COC(=O)c1ccccc1C(=O)OCC(CC)CCCC (centres unmarked) was tested. Which binding [1] did it give?
A: The binding was “yes”.

Q: What about the Kd [2] of the same compound?
A: The Kd was 70 nM.
